The nature of data set [1]: Molar enthalpy of transition or fusion. As to conditions: Crystal; DSC.
For data set [2] the following is noted: Crystal; DTA.

± gives the expanded uncertainty stated by the source.

On to `Clc1ccccc1Cl` [1,2-dichlorobenzene], for which the “Molar enthalpy of transition or fusion” value in data set [1] was 2.96 ± 0.203 kcal/mol. Moreover, the Normal melting temperature in data set [2] was -17.30 ± 0.53 °C.

For `Clc1cccc(Cl)c1` [1,3-dichlorobenzene], the “Molar enthalpy of transition or fusion” value in data set [1] came out at 3.01 ± 0.203 kcal/mol. For the same compound, the Normal melting temperature in data set [2] is -24.90 ± 0.53 °C.

Turning to `Clc1ccc(Cl)cc1` [1,4-dichlorobenzene], in data set [1], the “Molar enthalpy of transition or fusion” value came to 4.35 ± 0.213 kcal/mol. Also, the Normal melting temperature in data set [2] was 53.00 ± 0.53 °C.

For `c1ccc2ccccc2c1` [naphthalene], in data set [1], the “Molar enthalpy of transition or fusion” value turned out to be 4.54 ± 0.215 kcal/mol. In addition, the Normal melting temperature in data set [2] was determined as 80.10 ± 0.53 °C.

Source of the values: the NIST ThermoML archive (doi:10.1016/j.jct.2008.10.005).
